Data reported in PMC10384610, “Combining nonsense mutation suppression therapy with nonsense-mediated decay inhibition in neurofibromatosis type 1” (Molecular Therapy. Nucleic Acids, 2023).
Where two headings read alike, the source gives them in different places.

Experiments:
NF1^NS/+ Schwann cells = experiment: Western blot of neurofibromin and p-ERK in NF1^NS/+ Schwann cells treated with nonsense suppression drugs; assay type: cell-based, minipig; details: for neurofibromin increase in NF1^NS/+ Schwann cell cultures: multiple concentrations (Table S2), 24, 48 or 72 h, 3 biological replicates
Description: (§1) Schwann cells were isolated as previously described.[9]^,[18] Sciatic nerve or cutaneous neurofibroma were biopsied from WT or NF1^R1947/+ minipigs and transported in Dulbecco’s Modified Eagle’s Medium (DMEM; Thermo) containing 10% fetal bovine serum (FBS; Thermo) and 1% Antibiotic/Antimycotic (AA; Thermo). In a laminar flow hood, specimens were rinsed in 70% ethanol and phosphate-buffered saline (PBS; VWR 16750-078) by briefly dipping into each solution 10 times. Tissues were minced and incubated at 37°C, 5% CO2 in dissociation media containing DMEM with 10% FBS, 1% AA, 1x collagenase A (Thermo), and 1x dispase II (Roche) overnight in a Petri dish, then transferred to a conical and centrifuged at 270 × g for 5 min. Cells were plated onto a poly-L-lysine (0.05 mg/mL) and laminin-coated (10 μg/mL) six-well plate and cultured in complete media containing DMEM with high-glucose (GIBCO) supplemented with 10% FBS (GIBCO), forskolin (2 μM) (Calbiochem), 1% N2 supplement (Thermo), recombinant human neuregulin-b1 (NRG1) (10 ng/mL) (R&D Systems), and 1% AA. Media was replaced every 2 days. Schwann cells were separated from contaminating fibroblasts via magnetic cell selection, as described.[9]^,[18] Purified Schwann cells were expanded and stored in liquid nitrogen at low passage and vials were thawed immediately prior to use in experiments to maintain low-passage cells.
(§2) For extraction of protein from cells, snap frozen pellets were briefly thawed on ice and resuspended in RIPA buffer (Sigma) containing protease (Sigma) and phosphatase inhibitors (Sigma), then vortexed at 2,000 rpm at 4°C for 20 min, then centrifuged at 4°C for 15 min at 20,000 × g. For extraction of protein from tissues, snap frozen tissues were thawed briefly on ice, then 50 to 80 mg of tissue was transferred to a 2-mL microtube containing ceramic homogenizers (Agilent Technologies) and homogenized using a Bead Blaster (Benchmark Scientific) at 4,260 rpm, 7 m/s linear speed, 3 cycles of 30 s at 4°C. Homogenates were centrifuged at 13,000 rpm for 3 min at 4°C, then supernatants were transferred to new tubes and sonicated at an amplitude of 20A for 10 s at 4°C, vortexed at 2,000 rpm at 4°C for 20 min, then centrifuged at 20,000 × g at 4°C for 15 min.
(§3) Protein lysates from cells or tissues were quantified using a BCA assay (Thermo). Twenty to 30 μg of protein was denatured at 95°C for 5 min and separated by electrophoresis using SDS on 1.5-mm NuPAGE 4–12% Bis-Tris protein gels (Thermo). Protein was transferred to Immun-Blot PVDF Membrane (Bio-Rad) overnight (16–20 h) at 18 V, 4°C. Membranes were cut according to target molecular weights and blocked at room temperature (RT) for 1 h using 5% blocking grade buffer (Bio-Rad) in TBST (Tris-buffered saline, 0.1% Tween 20) (Sigma). Membranes were incubated with primary antibody overnight at 4°C and washed with TBST three times for 5 min at RT, then incubated with horseradish peroxidase-conjugated secondary antibody for 1 h at RT and washed again as described above. All washes and incubations were performed on a rocking platform. Blots were developed with the WesternBright Quantum Kit (Advansta). Bands were imaged using the Li-Cor Odyssey Fc Imaging System, quantified by densitometry, and normalized to HSP90.
Ataluren (MedChem Express) was reconstituted in sterile dimethyl sulfoxide (DMSO) to a stock concentration of 10 mM and stored at −80°C. […]

NF1^NS/− Schwann cells = experiment: Western blot of neurofibromin and p-ERK in NF1^NS/− Schwann cells (LOH) treated with nonsense suppression drugs; assay type: cell-based, minipig; details: concentrations of Table S2, 24, 48 or 72 h
Description: as §1, §2, §3
Ataluren (MedChem Express) was reconstituted in sterile dimethyl sulfoxide (DMSO) to a stock concentration of 10 mM and stored at −80°C. Cells were seeded in complete media at a density of 0.3 × 10^6 cells/plate in 10-cm plates. Media was changed 24 h later to complete media without AA and containing vehicle or drugs at indicated concentrations. Cells were harvested 24, 48, and 72 h after drug treatment and divided for protein and/or RNA extraction.

[1] = test system: NF1^R1947∗ mutation dual luciferase reporter in NF1^NS/− Schwann cells; experiment: Dual luciferase reporter (DLR) readthrough assay in minipig Schwann cells; assay type: cell-based; details: minipig NF1^NS/− cNF Schwann cells, 48 h, normalized to Renilla
Excerpt: (§4) The NF1^R1497X DLR plasmid was kindly provided by David Bedwell at University of Alabama. The Renilla-NF1-R1947X-Firefly insert contains 30 nucleotides surrounding the premature termination codon in NF1-R1947X inserted between the Renilla and Firefly genes. The 30-base pair readthrough cassette contains NF1^R1497X (G TCGACGGATGCCAAATGACAAAGAGTTGGATCC). Plasmids were amplified in DH5a E. coli using ampicillin selection and purified using a Qiagen miniprep kit, according to the manufacturer’s protocol. To produce stable cell cultures, we used Gateway cloning to transfer the DLR insert to a hygromycin-resistant PiggyBac Sleeping Beauty (PBSB) transposon vector. Briefly, a GBlock containing the DLR insert sequence and attB sites was cloned into the pDONR221 vector using BP clonase to produce pENTR-Renilla-NF1-R1947X-Firefly. This was cloned into the PBSB vector using LR clonase to produce pPBSB-CG-Renilla-NF1-R1947X-Firefly-PGK-Hygro, which was confirmed by DNA sequencing. Schwann cells were grown to 80% confluency and transfected with the PBSB transposon and PB7 (PiggyBac transposase) (5 μg each/ 1million cells) using the Neon electroporation system (Invitrogen #MPK10096). […] The DLR assay system (Promega) was used to detect readthrough, according to the manufacturer’s instructions. Luminescence was measured using the Cytation 5 plate reader. […]

[2] = test system: NF1^R1947∗ mutation dual luciferase reporter in iPNF95.6 cells; experiment: Dual luciferase reporter (DLR) readthrough assay in human Schwann cells; assay type: cell-based; details: human Schwann cells iPNF95.6, 48 h, normalized to Renilla
Excerpt: as §4

in vivo = details: sc
Description: Human equivalent doses (HED) were determined by allometric scaling using the standard conversion coefficient (Km), where Km = 1.1 for minipig and HED determination. Consequently, a 7.5-mg/kg human equivalent dose was 8.25 mg/kg. The required volume of drug for each animal was then based on individual body weight and determined on the day of administration.
(§5) Tissue samples (skin, sciatic nerve, optic nerve, and cortex) were collected from each animal at the same approximate locations and divided for analysis.
Plasma isolations were performed as described in a previous study.[10] Briefly, serial whole blood samples (1.5 mL) were collected from the jugular vein into lithium heparin vacutainer tubes. Samples were immediately transferred to a 1.7-mL microfuge tube and centrifuged at 2,000 × g for 10 min at 4°C. Supernatant (plasma) was transferred to a cryovial and stored at −80°C until analysis. […] Assay analytical measurement ranged from 0.2 to 12 mg/L, and samples with results higher than 12 mg/L were diluted appropriately and re-analyzed. Within-run precision is 0.3% CV, between-day precision is 0.4% CV, and accuracy is 99.8% (correlation coefficient). For each tissue type (skin, sciatic nerve, optic nerve, and cerebral cortex), samples were analyzed commercially using liquid chromatography with tandem mass spectrometry (LC-MS/MS; BioAgilytix, San Diego, CA). […] Standard curves and quality controls were prepared with untreated tissues. Tissues were prepared with a homogenization solution containing collagenase. […] The LC-MS/MS system consisted of a Waters Acquity UPLC (Milford, MA) coupled with a Waters Xevo TQ-S Micro Triple Quad mass spectrometer (Milford, MA). Mass transition data were acquired in electrospray positive ion (ESI^+) mode and captured using MassLynx 4.1 (Waters, Milford, MA).
Pharmacokinetic parameters and measures of systemic exposure included area under the concentration-time curve (AUC; linear up, log down), maximum concentration (Cmax), time to Cmax (Tmax), and half-life (t1/2).

[3] = NF1 minipig (NF1^R1947*/+), in vivo, 30 min
Description: Tissues were prepared with a homogenization solution containing collagenase.

[4] = test system: neurofibromin and p-ERK protein levels; experiment: Pharmacodynamics: western blot of neurofibromin and p-ERK in NF1 minipig tissues; assay type: in vivo; details: treated (n = 5) vs untreated controls (n = 4), sc 8.25 mg/kg daily 14 days
Excerpt: as §5

[5] = Tolerability and renal parameters in NF1 minipigs; assay type: in vivo, minipig; details: sc 8.25 mg/kg once daily for 14 days
[6] = murine models of DMD and CF, subcutaneous once daily 34 mg/kg, suppresses PTCs; cited from earlier work
[7] = human patients with DMD or CF, once daily intravenous infusion 7.5–10 mg/kg; cited from earlier work
[8] = set-up: method as in PMID 33978635; details: NF1 minipigs compared with WT minipigs; cited from earlier work
[9] = NF1^NS/+ Schwann cells, 100 μg/mL, 48 h

## CN[C@@H]1[C@@H](O)[C@@H](O[C@@H]2[C@@H](O)[C@H](O[C@H]3O[C@H]([C@@H](C)O)[C@@H](O)[C@H](O)[C@H]3N)[C@@H](N)C[C@H]2N)OC[C@]1(C)O [G418]
NF1^NS/+ Schwann cells; [9]
  neurofibromin: increased in all three replicates
  p-ERK: paradoxically increased
NF1^NS/+ Schwann cells
  neurofibromin increase in NF1^NS/+ Schwann cell cultures: not consistent between replicates or did not exhibit a dose- or time-dependent increase
NF1^NS/− Schwann cells
  nonsense suppression through expression of neurofibromin: no indication of nonsense suppression through expression of neurofibromin
  reduction in p-ERK: not a corresponding reduction in p-ERK
[1]
  firefly luciferase activity compared with vehicle-treated cells: significant and dose-dependent increase
[2]
  firefly luciferase activity compared with vehicle-treated cells: significant and dose-dependent increase

## O=C(O)c1cccc(-c2noc(-c3ccccc3F)n2)c1 [ataluren]
NF1^NS/− Schwann cells
  nonsense suppression through expression of neurofibromin: no indication of nonsense suppression through expression of neurofibromin
  reduction in p-ERK: not a corresponding reduction in p-ERK

## CNC(C)C1CCC(N)C(OC2C(N)CC(N)C(OC3OCC(C)(O)C(NC)C3O)C2O)O1 (centres unmarked) [gentamicin]
NF1^NS/+ Schwann cells; NF1^NS/+ Schwann cells, 250 or 500 μg/mL, 48 h, not replicated in other cultures
  neurofibromin, dose trend: linear increase in neurofibromin at 48 h in one replicate
NF1^NS/+ Schwann cells
  neurofibromin increase in NF1^NS/+ Schwann cell cultures: not consistent between replicates or did not exhibit a dose- or time-dependent increase
NF1^NS/− Schwann cells
  nonsense suppression through expression of neurofibromin: no indication of nonsense suppression through expression of neurofibromin
  reduction in p-ERK: not a corresponding reduction in p-ERK
In vivo; NF1 minipig, 8.25 mg/kg, Cmax
  Cmax: 38000 ng/mL
In vivo; NF1 minipig, 8.25 mg/kg, t1/2
  half-life: 1.82 h
In vivo; Ossabaw, minipig, 8.25 mg/kg, mean Cmax
  Cmax: 38000 ng/mL
In vivo; Ossabaw, minipig, 8.25 mg/kg, target Cmax reached
  Cmax: 40000 ng/mL
In vivo; minipig
  changes in PK parameters after 14 days: no significant changes in PK parameters
[3]
  difference of mean tissue concentrations from cortex (lowest) to sciatic nerve (highest): up to 8 fold
[4]
  neurofibromin protein expression in other tissues (cortex, sciatic nerve): no significant change
  p-ERK downregulation in tissues (optic nerve, cortex, sciatic nerve, skin): not significant in any tissues
[4]; p = 0.01
  neurofibromin protein expression in optic nerve tissue: higher
[5]
  tolerability, renal parameters including serum creatinine and blood urea nitrogen: well tolerated with no significant changes in renal parameters
[6]
  peak plasma concentration (Cmax): 40000 to 60000 ng/mL
[7]
  Cmax: 20000 to 40000 ng/mL

## Cn1cnc2c(F)c(Nc3ccc(Br)cc3Cl)c(C(=O)NOCCO)cc21 [selumetinib]
[8]
  concentration in the brain: reaches higher concentrations in the brain of NF1 minipigs compared with WT minipigs
